Measured values taken from patent US12582626B2, “Methods and compositions for treating cancer” (The Wistar Institute of Anatomy and Biology, priority 2016, dated 2026).

Columns and labels:
activated CD8+ T cells = experiment: In vitro stimulation of CD8+ T cells and drug treatments (flow cytometry, intracellular cytokine staining); format: cell-based, mouse
Method: Enriched CD8+ T cells were activated for 4 days in 6-well plates pre-coated with antibodies to CD3 (5 μg/ml) and CD28 (5 μg/mL) (BD Bioscience). For some samples, cells were transferred for the last 16 hours to a hypoxia chamber. To study the impact of hypoxia on relatively resting CD8+ T cells, enriched CD8+ T cells were stimulated for 48 hours under normoxia. Cells were then removed from the plates, washed and replated in fresh medium with 100 U/ml human IL-2 for 96 hours, followed by culture in normoxia or hypoxia with IL-2 for another 36 hours before analysis. Cells were cultured in Roswell Park Memorial Institute (RPMI) medium without Glu (Life Technologies) supplemented with Glu (10 mM) or Gal (10 mM), 10% dialyzed FBS (Life Technologies), 20 mM HEPES, 2 mM Glutamax, 1 mM sodium pyruvate, 0.05 mM 2-mercaptoethanol and 1% penicillin-streptomycin. Hypoxia experiments were performed in a Thermo Napco series 8000WJ CO2 incubator equipped with nitrogen tank for O2 replacement. O2 level was kept at 1% during CD8+ T cells hypoxia culture for time periods indicated in each assay. In all assays cell viability was assessed before staining. […] Drugs and corresponding vehicle controls were added as follows: 2-deoxy-D-glucose (2-DG, 2 mM, Sigma) or Fenofibrate (FF, 50 μM, Sigma) for the entire culture period; Etomoxir (Eto, 200 μM, Sigma) for the last 48 hours. DMSO concentrations were kept below 0.2% for all culture conditions.
CD8^+ T cells from spleens of naive C57Bl/6 mice were purified by negative selection using magnetic beads (MACS, STEMCELL Technologies). Enriched CD8^+ T cells were activated for 4 days in 6-well plates pre-coated with antibodies to CD3 (5 μg/ml) and CD28 (5 μg/mL) (BD Bioscience). For some samples, cells were transferred for the last 16 hours to a hypoxia chamber. To study the impact of hypoxia on resting CD8^+ T cells, purified enriched CD8^+ T cells were stimulated for 48 hours under normoxia. Cells were then washed off the plates and replated in fresh medium with 100 U/ml human IL-2 for 96 hours, followed by culture in normoxia or hypoxia with IL-2 for another 36 hours before analysis. Cells were cultured in Roswell Park Memorial Institute (RPMI) medium without Glu (Life Technologies) supplemented with Glu (10 mM) or Gal (10 mM), 10% dialyzed FBS (Life Technologies), 20 mM HEPES, 2 mM Glutamax, 1 mM sodium pyruvate, 0.05 mM 2-mercaptoethanol and 1% penicillin-streptomycin. Hypoxia experiments were performed in a Thermo Napco series 8000WJ CO2 incubator equipped with nitrogen tank for O2 replacement. O2 level was kept at 1% during CD8^+ T cells hypoxia culture for time periods indicated in each assay. Drugs and corresponding vehicle controls were added as follows: 2-deoxy-D-glucose (2-DG, 2 mM, Sigma) or Fenofibrate (FF, 50 μM, Sigma) for the entire culture period; Etomoxir (Eto, 200 μM, Sigma), Amidepsine A (AmA, 20 μM, Santa Cruz), or Orlistat (OS, 100 μM, Sigma) for the last 48 hours. DMSO concentrations were kept below 0.2% for all culture conditions.
For mitochondrial metabolic markers analysis, cells were stained with Mitosox Red (5 μM, MROS) and DioC6 (40 nM, MMP) (Life Technologies) at 37° C. for 30 minutes under either normoxia or hypoxia (for in vitro samples cultured prior to staining under hypoxia). For fatty acid uptake experiments, cells stimulated under different conditions in vitro or isolated from spleen and tumors of mice bearing 2 weeks or 1 month-old tumors were immediately incubated with 1 μM BODIPY FL C16 (Life tech) for 30 mins at 37° C. Cells were washed twice with cold PBS before surface staining. For Cpt1a staining, cells were stained for surface markers first followed by permeabilization with transcription factor buffer set (BD Pharmingen, San Diego, CA). Cells were stained with anti-Cpt1a antibody or mouse IgG2b isotype control antibody (abcam) at 5 μg/ml in 1× permwash for 45 mins at 4° C. […]

CD8+ T cells = experiment: Extracellular flux analysis (OCR, ECAR) of stimulated CD8+ T cells; format: cell-based, mouse; settings: for Basal OCR: OS 100 μM or AmA 20 μM, Glu or Gal media, short-term hypoxia
Method: OCR and ECAR for CD8^+ T cells stimulated under different conditions were measured with XF24 and XF96 Extracellular Flux Analyzers (Seahorse Bioscience) following the manufacturer's instructions. Hypoxia samples were prepared in a hypoxia chamber under 1% O2. Dead cells were removed by dead cell removal kit using MACS and live cells were pre-incubated with 100 μM cobalt chloride before being removed from the hypoxia chamber and entered into the Seahorse analyzer. In experiments to determine the contribution of fatty acid oxidation (FAO) to OCR, 200 μM ETO was added 15 minutes before the Seahorse analysis. Briefly after repeated measures of basal respiration and lactate production, 1 μM OM was added to measure ATP leakage by OCR and glycolytic capacity by ECAR. 1.5 μM FCCP was then added to measure maximal respiration by OCR followed by addition of 100 nM Rotenone and 1 μM Antimycin A (AmA) to determine spare respiratory capacity by OCR and then 100 mM 2-DG to determine glycolytic reserve by ECAR.

[1] = test system: vaccine-induced CD8+ T cells; experiment: FF treatment of vaccinated donor mice, splenic CD8+ T cells analysed before transfer; format: in vivo, mouse; settings: samples incubated with Eto
Method: For in vivo treatment, fenofibrate (FF; at 100 mg/kg/day, Sigma) was first diluted in dimethylsulfoxide (DMSO) and then further diluted in PBS and given by oral gavage daily for 3 weeks. Control mice received diluent at the same volume. For adoptive transfer experiments, 1×10^7 in vitro activated CD8^+ T cells transduced with lentivectors or splenocytes from vaccinated mice treated with drugs and containing 5×10^4 Trp-1455 tetramer^+CD8^+ T cells per dose were injected intravenously into recipient mice. For FF/control treated splenocytes or wild type/PPAR-α KO splenocytes co-transfer experiments, splenocytes containing 10^5 Trp-1455 tetramer^+CD8^+ T cells from each group were mixed and transferred into CD90.1^+ recipient mice intravenously.
To assess how increased FA catabolism affects CD8+TIL functions, we vaccinated CD90.2+ mice congenic for CD45, and treated them for 3 weeks daily with FF (CD45.1 mice) or diluent (CD45.2 mice). Splenocytes from these mice were mixed at a 1:1 ratio of Trp-1-specific CD8+ T cells from the 2 donors and transferred into CD90.1+ recipient mice, which had been challenged with tumor cells and vaccinated 3 days later. Cells were transferred 2 days after vaccination (FIG. 6A).

`O=CC[C@@H](O)[C@H](O)[C@H](O)CO` [2-DG, 2-deoxy-D-glucose] was tested, and the PD-1 expression (activated CD8+ T cells; 2-DG compared to cells grown with Glu) was “more”, the “O2 consumption rate (OCR)” value (CD8+ T cells; Glu medium with 2-DG 2 mM) was “decreases” and the OCR/ECAR ratio (CD8+ T cells; Glu medium with 2-DG 2 mM) was “augments”. The “extracellular acidification rate (ECAR)” value (CD8+ T cells; Glu medium with 2-DG 2 mM) was “declines”.

In the case of `COc1cc(C)c(C(=O)Oc2cc(C)c(C(=O)Oc3cc(C)c(C(=O)NC(C)C(=O)O)c(O)c3)c(O)c2)c(OC)c1` (stereo not shown) [AmA, Amidepsine A], the “functions of T cells” value (activated CD8+ T cells; Gal media and hypoxia) is reported as “decrease functions”, the PD-1 expression (activated CD8+ T cells; under hypoxia, AmA, Gal medium) is reported as “decreases” and the “Basal OCR” value (CD8+ T cells) is reported as “decreases”.

For `CCOC(=O)[C@@]1(CCCCCCOc2ccc(Cl)cc2)CO1` [Eto, etomoxir], the “functions and polyfunctionality of CD8+ T cells” value (activated CD8+ T cells; cultured with limited access to Glu and O2) was “decreases”, the PD-1 expression (activated CD8+ T cells; under hypoxia, FF 50 μM or Eto 200 μM) was “decreases” and the “FF-enhanced OCR of splenocytes” value [1] was “blocked”. The OCR (CD8+ T cells; Eto 200 μM, CD8+ T cells stimulated in Glu or Gal media) was “decreases”.

For `CCCCCCCCCCC[C@@H](C[C@@H]1OC(=O)[C@H]1CCCCCC)OC(=O)[C@H](CC(C)C)NC=O` [OS, Orlistat], the PD-1 expression (activated CD8+ T cells; under hypoxia, OS, regardless of other culture conditions) was “decreases” and the “Basal OCR” value (CD8+ T cells) was “decreases”.
